Laboratory results: US9795649B2, “Sesquiterpenoid-based compounds, extracts of Cyperus rotundus comprising the same, and use thereof” (RESEARCH & BUSINESS FOUNDATION SUNGKYUNKWAN UNIVERSITY, priority 2013, dated 2017)
Entries after “also recorded” stand apart in the source; their conditions may differ.

Legend:
Format in all cases: cell-based
[1] = test system: MCF-7 bus cells; test: E-screen assay with co-treatment of high or low concentration of estradiol (SERM function); conditions: for change in estrogenic activity by co-treatment of high concentration of estrogen: estradiol 10^−7M, FIGS. 6A and 6B; for change in estrogenic activity by co-treatment of low concentration of estrogen: estradiol 10^−13M, FIGS. 7A and 7B
Procedure: (§1) In detail, MCF-7-bus cells were cultured in a 5% FBS DMEM medium and seeded in a 48-well plate at a density of 5×10^3 cells/well. The cells were cultured in a CO2 incubator at 37° C. for 48 hours, and then washed with a phenol red-free medium twice. The test materials were diluted with 5% CD-FBS DMEM at different concentrations, and then cells were treated therewith. The concentration of the solvent was in principle adjusted to 0.1%. After culturing for 144 hours (6 days), cells were fixed to the plate with TCA (Trichloroacetic acid) solution. The cells thus fixed were stained with SRB (Sulforhodamin B) dye, and the SRB dye remaining in the plate was removed by washing with acetic acid. The bound SRB dye was eluted from the cells with tris-base solution, and absorbance at 490 nm was measured to calculate the amount of SRB dye. Finally, estrogenic actions of the test materials were confirmed.
In detail, to examine whether the test materials function as an antagonist of estrogen at excessively high level of estrogen in the body, the test materials were mixed with high concentration of estradiol (10^−7M) and MCF-7 bus cells were treated with the mixture. To examine whether the test materials function as an agonist of estrogen at estrogen deficiency in the body, the test materials were mixed with a low concentration of estradiol (10^−13M) and MCF-7 bus cells were treated with the mixture. Then, e-screen assay was performed.

[2] = test system: MCF-7-bus cells; test: E-screen assay for estrogenic activity; conditions: isolated compounds; FIGS. 4A and 4B
Source text: E-screen assay is a method of measuring estrogenic action of a substance, i.e., a method of utilizing the growth effect of MCF-7-bus, a breast cancer cell line with endogenous estrogen receptors (ER) expressed therein, which is stimulated by an estrogenic substance. In the present invention, estrogenic activities of the methanol extract and the organic solvent fraction thereof, the ethanol extract and the column fraction thereof were examined by E-screen assay.
as §1

[3] = test system: MCF-7 bus cells; test: E-screen assay with co-treatment of tamoxifen (estrogen receptor antagonist); conditions: tamoxifen 10^−6M; FIGS. 5A and 5B
Procedure: as §1
In detail, Tamoxifen is a representative estrogen receptor antagonist, and in this experiment, in order to examine whether the test materials show the estrogen receptor-mediated estrogenic actions, the test materials were mixed with tamoxifen (10^−6M) and MCF-7 bus cells were treated with the mixture to perform e-screen assay, and the results are shown in FIG. 5.

[4] = test system: RBL-2H3 cell line; test: β-Hexosaminidase release assay for anti-allergic activity; conditions: Rattus norvegicus, 50 μg/ml, Mean ± SD, read-out: Degranulation-inhibitory activity (%, Mean ± SD)
Procedure: β-Hexosaminidase release assay is an experiment for examining anti-allergic activity by activating the RBL-2H3 cell line with an activating factor, treating the activated cells with an antigen, and then measuring the amount of released β-hexosaminidase to examine inhibitory effect on degranulation, and this assay was performed as follows.
In detail, the RBL-2H3 cell line was cultured in minimum essential media (hereinafter, referred to as EMEM) containing Eagle's salt supplemented with 15% fetal bovine serum and L-glutamine at 37° C. in a 5% CO2 incubator. Adherent cells were suspended by Trypsin-EDTA, and separated, recovered for use in the experiment. The RBL-2H3 cell line was activated with an activating factor (Dinitrophenol-conjugated human serum albumin, (DNP-HSA)-specific IgE), and then the activated cells were treated with 200 ng/mL of an antigen (DNP-HSA), and 0, 6.25, 12.5, 25, 50, or 100 μg/mL of the fraction of the extract of Cyperus rotundus was treated, respectively. Cells were incubated for 30 minutes. As a positive control, 50 μg/mL of ketotifen was used. Thereafter, the amount of β-hexosaminidase released to the medium was measured using a microplate spectrophotometer. Inhibition of β-hexosaminidase release means prevention of degranulation of immune cells.

Molecule | change in estrogenic activity by co-treatment of high concentration of estrogen [1] | change in estrogenic activity by co-treatment of low concentration of estrogen [1] | estrogenic activity [2] | estrogenic activity by co-treatment with tamoxifen [3] | inhibition at 50 µg/mL [4] [%]
C=C(C)[C@@H]1CC[C@@]2(C)CCC(=O)[C@@]3(C)O[C@@]23C1 [Compound [1], 4α,5α-oxidoeudesm-11-en-3-one] | function as an estrogen inhibitor | function as an estrogen supplement | excellent estrogenic activity; also recorded: high estrogenic activity | remarkably reduced activities | 
C=C(C)C1CCC2(C)CCC(OC)C(C)=C2C1 (stereo not drawn) [Compound [6], 3α-methoxyeudesma-4,11-diene] | function as an estrogen inhibitor | function as an estrogen supplement | high estrogenic activity | remarkably reduced activities | 41.7 ± 5.4
CN1CCC(=C2c3ccccc3CC(=O)c3sccc32)CC1 [Ketotifen, ketotifen, reference compound] |  |  |  |  | 50.5 ± 2.28
cyper-11-ene-3,4-dione [Compound [2]] | function as an estrogen inhibitor | function as an estrogen supplement | high estrogenic activity | remarkably reduced activities | 
